Values quoted from earlier work as cited in patent US20070134339A1, “ZONISAMIDE AND NSAID NANOPARTICULATE FORMULATIONS” (Elan Pharma International, Limited, priority 2005, published 2007).
≈ marks a conversion by molar mass, not a printed value.

Tests used:
[1] = not given; remark: listed apart in the source
[2] = not given; remark: listed apart in the source

- solubility in 0.1 N HCl (0.1 N HCl): 500 µg/mL (≈ 2.36 mM)
- solubility in water (water): 800 µg/mL (≈ 3.77 mM)
- peak plasma concentrations ([1]; 200-400 mg oral dose, normal volunteers): 2 to 5 µg/mL
- time at which peak plasma concentrations occur ([1]; 200-400 mg oral dose, normal volunteers, without food): 2 to 6 h
- effect of food on bioavailability ([1]; oral, in the presence of food): no effect
- time to maximum concentration ([1]; oral, in the presence of food): 4 to 6 h
- pKa [2]: 10.2
SMILES: NS(=O)(=O)Cc1noc2ccccc12 [Zonisamide, 1,2-benzisoxazole-3-methanesulfonamide]
